What was measured:
[1] = test system: metabolically active cell; details: even when buffered
Experimental: Viability is confirmed with Trypan Blue or PI-FDA over a time period of 10 seconds to 30 minutes. If the viability of the cell sample at between one and three million cells/mL decreases by 10% then the salt of the compound is rejected and another salt of the assay compound is synthesized.

dipeptide reagent = test: effect of sodium chloride on dipeptide reagent; format: biochemical; details: 7 mM, pH 6.5 to 8.7
From the text: Inhibitors and poisons (or toxins) are components that can be added to reduce the activity of non-targeted enzymes that provide competing reactions for the leaving group. Inhibitors are usually very selective for a particular enzyme. For example, EDTA only works with enzymes requiring Ca^+2, Mg^+2 and some other metals. […] Preferred inhibitors for particular enzymes are included in Table 1.

[2] = test system: metabolically active whole cell; test: substrate panel in normals and HIV + patients, TB infection (Table 4); format: cell-based, human; parameters: unit not given here
Experimental: A panel of assay compounds are assembled consisting of Ala-aminopeptidase and Lys-aminopeptidase, Dipeptidyl peptidase IV (Ala-Ala)2 rhodamine 110 and Cathepsin D to indicate possible TB infection in AIDS related cases.
A panel Of enzymatic substrates is performed consisting of Ala-aminopeptidase and Lys-aminopeptidase, Dipeptidyl peptidase IV (Ala-Ala)2 rhodamine 110 and Cathepsin D to indicate possible TB infection in AIDS related cases.

lymphocytes = test: aberrant enzyme activities in febrile children, lymphocytes (Table 7); format: cell-based, human
monocytes = test: aberrant enzyme activities in febrile children, monocytes (Table 7); format: cell-based, human
granulocytes = test: aberrant enzyme activities in febrile children, granulocytes (Table 7); format: cell-based, human
[3] = test system: acute lympholytic Ficoll prepared lymphocytes; test: amino peptidase activity in acute lymphocytic leukemia lymphocytes; format: cell-based, human; details: FIG. 4B
From the text: The cell's ability to fight off an invader lies within its genetics and therefore cell type. The "readiness" however of any genetically capable group of cells to defend is different. A measure of this "readiness" is manifest in the available proteolytic enzymes contained within vacuoles or on the surface of the cell. The assay compound hydrolysis rate increases with increased mass of enzymes giving a picture of immune competence both in number of cells and activity level. […] Images were generated using Universal Imaging.

cathepsin B = details: cited from earlier work
aminopeptidase [4] = details: cited from earlier work
aminopeptidase [5] = test: inhibition of aminopeptidase reaction with (H-L-Asp)2 rhodamine 110; format: biochemical; details: approximately 10 mM; substrate (H-L-Asp)2 rhodamine 110
From the text: The chemical nature of the buffer is important to the reactivity Of the assay compound with the cellular enzymes. […] In addition, the assay compound hydrolysis by the enzyme occurs at an increased rate of reaction.

Br.Cc1ncc(C)n2nc(CCc3nc(-c4ccccc4)cn3C)nc12 [hydrogen bromide (HBr), hydrogen bromide]
kills cells: cell killing [1]

[Cl-].[Na+] [sodium chloride]
slightly inhibitory effect: inhibitory effect on dipeptide reagent (dipeptide reagent)

CC(C)C[C@H](N)C(=O)Nc1ccc2c(c1)Oc1cc(NC(=O)[C@@H](N)CC(C)C)ccc1C21OC(=O)c2ccccc21 [LEU, (Leu)2 Rho 110]
+ (>0.25 Increase over normal range): aberrant enzyme activity, LYMPHS (lymphocytes; P88 Enteritis) | aberrant enzyme activity, LYMPHS (lymphocytes; P89 Viral Stomatitis) | aberrant enzyme activity, LYMPHS (lymphocytes; P92 Adenitis) | aberrant enzyme activity, LYMPHS (lymphocytes; P95 Viral Syndrome) | aberrant enzyme activity, LYMPHS (lymphocytes; P96 Viral Syndrome) | aberrant enzyme activity, LYMPHS (lymphocytes; P101 Fever -- Unknown Origin) | aberrant enzyme activity, LYMPHS (lymphocytes; P103 Viral Syndrome) | aberrant enzyme activity, MONOS (monocytes; P88 Enteritis) | aberrant enzyme activity, MONOS (monocytes; P89 Viral Stomatitis) | aberrant enzyme activity, MONOS (monocytes; P92 Adenitis) | aberrant enzyme activity, MONOS (monocytes; P95 Viral Syndrome) | aberrant enzyme activity, MONOS (monocytes; P96 Viral Syndrome) | aberrant enzyme activity, MONOS (monocytes; P97 Pyelonephritis) | aberrant enzyme activity, MONOS (monocytes; P101 Fever -- Unknown Origin) | aberrant enzyme activity, MONOS (monocytes; P103 Viral Syndrome) | aberrant enzyme activity, GRANS (granulocytes; P88 Enteritis) | aberrant enzyme activity, GRANS (granulocytes; P89 Viral Stomatitis) | aberrant enzyme activity, GRANS (granulocytes; P92 Adenitis) | aberrant enzyme activity, GRANS (granulocytes; P95 Viral Syndrome) | aberrant enzyme activity, GRANS (granulocytes; P96 Viral Syndrome) | aberrant enzyme activity, GRANS (granulocytes; P101 Fever -- Unknown Origin) | aberrant enzyme activity, GRANS (granulocytes; P103 Viral Syndrome)
lost their enzymatic activity: amino peptidase activity [3]
259.6: MEAN DELTA FL ([2]; NORMALS)
130.5: MEAN DELTA FL ([2]; HIV + PATIENTS)
.smallcircle.: aberrant enzyme activity, LYMPHS (lymphocytes; P97 Pyelonephritis) | aberrant enzyme activity, LYMPHS (lymphocytes; P99 Viral Syndrome) | aberrant enzyme activity, LYMPHS (lymphocytes; P102 UTI) | aberrant enzyme activity, MONOS (monocytes; P99 Viral Syndrome) | aberrant enzyme activity, MONOS (monocytes; P102 UTI) | aberrant enzyme activity, GRANS (granulocytes; P97 Pyelonephritis) | aberrant enzyme activity, GRANS (granulocytes; P99 Viral Syndrome) | aberrant enzyme activity, GRANS (granulocytes; P102 UTI)

CC(=O)N[C@@H](CC(C)C)C(=O)N[C@@H](CC(C)C)C(=O)N[C@H](C=O)CCCNC(=N)N [leupeptin]
selectively inhibits cathepsin B: inhibition of cathepsin B (cathepsin B)

CC(C)C[C@H](NC(=O)[C@@H](O)[C@H](N)Cc1ccccc1)C(=O)O [bestatin]
selectively inhibits aminopeptidase: inhibition of aminopeptidase (aminopeptidase [4])

[Ca+2].[Cl-].[Cl-] [calcium chloride]
inhibitory: inhibitory to the enzyme reaction (aminopeptidase [5])
